According to PMC7214178, “Ligand‐specific recycling profiles determine distinct potential for chronic analgesic tolerance of delta‐opioid receptor (DOPr) agonists” (Journal of Cellular and Molecular Medicine, 2020):

Columns and labels:
Flag‐DOPr [1] = assay: Agonist‐induced internalization of Flag‐DOPrs in primary cortical neuron cultures; assay type: cell-based, Murine; details: 10 µmol/L, 60 min; rat primary cortical neurons transfected with Flag‐DOPr; three independent experiments
Procedure: (§1) Primary neuronal cultures were prepared from rat post‐natal prefrontal cortex (P0‐P2) as previously described. ^19 Briefly, three cultures were independently prepared from 8 to 12 pups each. Pups were cryo‐anaesthetized, and brains were removed and transferred into ice‐cold dissociation solution (NaS0_4 90 mmol/L; K2SO4 30 mmol/L; MgCl2 5.8 mmol/L; CaCl20.25 mmol/L; HEPES 10 mmol/L; glucose 20 mmol/L; pH 7.4). Following dissection, the frontal cortex was digested in papain solution (20 U/mL; 40 minutes at 37°C), and the product passed through Pasteur pipettes of progressively decreasing diameter for mechanical dissociation. The suspension obtained was centrifuged, and cells were then resuspended and diluted to a density of 2.5 million/mL, before plating onto glass coverslips pre‐coated with collagen/poly l‐lysine (each at 0.1 mg/mL). Culture proceeded in supplemented Neurocell medium (B27 4%; 100 U/mL penicillin‐streptomycin; GlutaMAX 2%; FBS 10%) for 24 hours. Coverslips were then transferred to a six‐well plate containing 2 mL of Neurocell medium/well and transfected with Flag‐DOPr (8 µg/well), using a calcium phosphate transfection protocol previously. ^19 Murine DORs tagged with the Flag epitope at the N terminus were a generous gift from Dr M. von Zastrow (University of California at San Francisco, San Francisco, CA).
Immunolabelling of surface receptors for quantification of trafficking was performed as previously described. ^19 Briefly, primary cultures expressing Flag‐DOPrs were incubated at 37°C with Neurocell medium containing Ca^2+‐dependent mouse anti‐Flag M1 antibody (1:100; Sigma). […]
(§2) Cytoplasmic and surface labelling densities were quantified with ImageJ using a previously described method, ^27 with small modifications. ^16 In particular, total cytoplasmic labelling density was obtained by measuring fluorescence intensity within the region confined between the external and nuclear perimeters, and dividing this value by the corresponding area. […]

Flag‐DOPr [2] = assay: DOPr recycling after recovery from agonist‐induced internalization in primary cortical neuron cultures; assay type: cell-based, Murine; details: for Surface labelling after recovery / Intracellular immunoreactivity after 60 min recovery vs immediately after treatment: 10 µmol/L; for Surface labelling after recovery / Effect of ECE2 inhibitor 6634449 on redistribution of internalized receptors during recovery: 60 min; for Surface labelling after recovery: then 60 min recovery, non‐permeabilized neurons; for Intracellular immunoreactivity after 60 min recovery vs immediately after treatment: then 60 min recovery in absence of ligand, permeabilized neurons; for Effect of ECE2 inhibitor 6634449 on redistribution of internalized receptors during recovery: agonist 10 µmol/L, 6634449 20 μmol/L during 60 min recovery
Procedure: as §1
Immunolabelling of surface receptors for quantification of trafficking was performed as previously described. ^19 Briefly, primary cultures expressing Flag‐DOPrs were incubated at 37°C with Neurocell medium containing Ca^2+‐dependent mouse anti‐Flag M1 antibody (1:100; Sigma). After 30 minutes incubation with the antibody, vehicle (0.05% DMSO in Neurocell) or agonist (TIPP, deltorphin II; SNC‐80; SB235863; 10 μmol/L) was added to the medium for 60 minutes. At the end of this period, cultured neurons were washed at 37°C once in calcium‐free PBS and then in PBS in order to remove treatment agonist as well as antibody bound to receptors that may have remained at the membrane after agonist exposure. For visualization of internalized receptors, cultures were immediately fixed with 4% PFA, permeabilized with PBS/0.1% Triton (20 minutes at room temperature (RT)), blocked with PBS/BSA 1% (10 minutes at RT) and incubated with secondary antimouse Alexa 488‐conjugated donkey antibody (1:1000; Invitrogen, A21202). Alternatively, cultured neurons were allowed to recover for 60 minutes in the absence of ligand before a second round of calcium‐free PBS wash was completed before fixation, permeabilization and incubation with secondary antibody. The latter procedure allowed to remove antibody bound to Flag‐DOPrs that translocated to the surface during recovery ensuring the exclusive labelling of receptors that were retained intracellularly. ^26 Another set of neurons was similarly treated with agonist or vehicle and then allowed to recover for 60 minutes following which they were fixed and incubated with secondary antibody without permeabilization, so as to exclusively reveal Flag‐DOPrs that reappeared at the surface during recovery from internalization; measures of surface labelling were normalized to intracellular labelling produced during internalization. Recycling was thus established by taking two independent measures: (a) cytoplasmic labelling density lost during recovery from treatment and (b) gain in surface labelling density when neurons were allowed to recover from agonist‐induced internalization. In experiments in which 6634449 was introduced in the medium during recovery, the concentration used was 20 μmol/L.
as §2

DOPr = test system: DOPr; set-up: method as in PMID 24174495; details: cited from earlier work

In the case of `CCC(C)COC(=O)c1[nH]c2c(c1C)CC1C3Cc4ccc(OC)c5c4C1(CCN3C)C2O5.Cl` (stereo not drawn) [SB235863, [8R‐(4bS*,8aα,8aβ,12bβ)]7,10‐dimethyl‐1‐methoxy‐11‐(2‐ethylpropyl)oxycarbonyl 5,6,7,8,12,12b‐hexahydro‐(9H)‐4,8‐methanobenzofuro[3,2‐e]pyrrolo[2,3‐g]isoquinoline hydrochloride], the “Sequestration (intracellular labelling density)” value (“Sequestration” below) (Flag‐DOPr [1]) is reported as “low‐internalizing”, the “Surface labelling after recovery” value (Flag‐DOPr [2]) is reported as “less” and the “Intracellular immunoreactivity after 60 min recovery vs immediately after treatment” value (Flag‐DOPr [2]) is reported as “not different from the one observed immediately after the end of treatment”. For the same compound, the “Effect of ECE2 inhibitor 6634449 on redistribution of internalized receptors during recovery” value (Flag‐DOPr [2]) was “without effect” and the “Decay of cAMP inhibition in HEK cells” value (DOPr) was “slow decay”.

For `C=CCN1C[C@H](C)N([C@H](c2ccc(C(=O)N(CC)CC)cc2)c2cccc(OC)c2)C[C@H]1C` [SNC‐80, (+)‐4‐[(αR)‐α‐((2S,5R)‐4‐allyl‐2,5‐dimethyl‐1‐piperazinyl)‐3‐methoxybenzyl]‐N,N‐diethylbenzamide], the “Sequestration” value (Flag‐DOPr [1]) was “significantly higher”, the “Surface labelling after recovery” value (Flag‐DOPr [2]) was “less” and the “Intracellular immunoreactivity after 60 min recovery vs immediately after treatment” value (Flag‐DOPr [2]) was “not different from the one observed immediately after the end of treatment”. For the same compound, the “Effect of ECE2 inhibitor 6634449 on redistribution of internalized receptors during recovery” value (Flag‐DOPr [2]) was “without effect” and the “Decay of cAMP inhibition in HEK cells” value (DOPr) was “fast decay”.

For deltorphin II, the “Sequestration” value (Flag‐DOPr [1]) was “significantly higher”, the “Intracellular immunoreactivity after 60 min recovery vs immediately after treatment” value (Flag‐DOPr [2]) was “significantly reduced” and the “Effect of ECE2 inhibitor 6634449 on redistribution of internalized receptors during recovery” value (Flag‐DOPr [2]) was “remain trapped in the cytosol”. The “Decay of cAMP inhibition in HEK cells” value (DOPr) was “fast decay”.
